Assay results published in ChEMBL document CHEMBL1151664, “Antitumor agents, 75. Synthesis of cytotoxic anthraquinones digiferruginol and morindaparvin-B” (1985).
Converted amounts (≈) assume the structure as drawn.

System: KB
Experiment: Cytotoxicity against human KB cells
Assay type: functional
Conditions: read-out: ED50 (the source's name)

O=C1c2ccccc2C(=O)c2c1ccc(CO)c2O [DIGIFERRUGINOL]
EC50: 0.09 mg/L (≈ 0.354 µM)
